In publication PMC10714399, “Open Source Antibiotics: Simple Diarylimidazoles Are Potent against Methicillin-Resistant Staphylococcus aureus” (ACS Infectious Diseases, 2023):
Converted amounts (≈) assume the structure as drawn. “And” between values parts separate entries of the source, which are not always exact repeats. Equal values may be shown once. Read-outs that look alike come from different tables or passages of the source.

Assays:
[1] = system: Enterococcus faecalis ATCC 51299 (vanA-positive; vancomycin-resistant); experiment: In vitro antibacterial activity, MIC (UCL), VRE; format: cell-based
Protocol: (§1) Staphylococcus aureus NCTC 13373 (mecA-positive; methicillin-resistant, NCTC 13373) was supplied by the National Collection of Type Cultures (NCTC), Public Health England, United Kingdom. Other organisms, S. aureus ATCC 25923 (methicillin-susceptible) and Enterococcus faecalis ATCC 51299 (vanA-positive; vancomycin-resistant), were obtained from the American Type Culture Collection (ATCC) via LGC Standards, UK. A suspension of each organism was prepared from an overnight plate culture (tryptone soya agar) in phosphate-buffered saline (PBS) and adjusted to an absorbance reading at 600 nm of 0.1, which is approximately equivalent to 1 × 10^8 colony-forming units (CFU) per mL. The cultures were further diluted 1:100 in isosensitest broth (Oxoid, United Kingdom) before 100 μL was used to inoculate each well of a 96-well plate that contained diluted samples of the OSA series. Compounds were evaluated over a 2-fold dilution range from 32 to 0.03 μg/mL. Stocks of the samples were prepared in 100% DMSO at […] before being diluted in isosenstitest broth. The highest concentration of DMSO present was 2%, which has been previously shown not to inhibit the growth of the microorganisms (data not shown). […] Vancomycin was used as a quality control compound.

[2] = system: Staphylococcus aureus NCTC 13373 (mecA-positive; methicillin-resistant); experiment: In vitro antibacterial activity, MIC (UCL School of Pharmacy assay), MRSA; format: cell-based; conditions: for MIC: Staphylococcus aureus
Protocol: as §1

[3] = system: S. aureus ATCC 25923 (methicillin-susceptible); experiment: In vitro antibacterial activity, MIC (UCL), MSSA; format: cell-based, Staphylococcus aureus; conditions: for MIC: Staphylococcus aureus
Protocol: as §1

[4] = system: PMM (primary mouse macrophages); experiment: Toxicity against PMM; format: cell-based
Protocol: (§2) ADME and toxicity for compounds were measured according to procedures outlined in the manuscript submitted in parallel to this one;2 other procedures were used for those compounds analysed by Monash University (in vitro ADME) or UCL (toxicity), both described in the main

[5] = system: MRC-5SV2 (human lung fibroblast cell line); experiment: Toxicity against MRC-5SV2; format: cell-based
Protocol: as §2

[6] = UCL assay, read-out: MRSA MIC (ug/mL) (UCL)
[7] = UCL assay, read-out: MSSA MIC (ug/mL) (UCL)

Compound | PMM TC50 ([4]; PMM) [µM] | MRC5 TC50 ([5]; MRC5 cells) [µM] | MIC [2, 6] [µg/mL] | MIC [3, 7] [µg/mL] | PMM TC50 [4] [µg/mL] | MRC5 TC50 [5] [µg/mL] | MRSA MIC [2] | MSSA MIC [3] [µg/mL] | further results
COc1ccn2c(Nc3ccccc3F)c(-c3ccccn3)nc2c1 [OSA_000851] |  |  |  |  |  |  |  |  | MIC ([1]; read-out: VRE MIC (UCL)): 16 µg/mL (≈ 47.9 µM); MIC ([2]; UCL, read-out: MRSA MIC (UCL)): 8 µg/mL (≈ 23.9 µM); MIC ([3]; read-out: MSSA MIC (UCL)): 4 µg/mL (≈ 12 µM)
Fc1ccc(-c2c(-c3ccccn3)nc3n2CCC3)cc1 [OSA_001053] | 32 | 7.55 | > 32 | > 32 |  |  |  |  | 
Cc1ccn2c(CN(CC(C)C)c3cccc(C(F)(F)F)c3)c(-c3ccccn3)nc2c1 [OSA_001033] | 32 | 9.78 | > 32 | > 32 |  |  |  |  | 
Fc1cc(-c2c(-c3ccccn3)nc3n2CCC3)ccn1 [compound 1073] |  |  |  |  | 9.0 | 8.6 | > 32 µg/mL and 32 µg/mL | > 32 | 
Fc1cc(-c2c(-c3ccccn3)nc3n2CCC3)ccn1 [OSA_001073] | 32 | 30.55 | > 32 | > 32 |  |  |  |  | 
Cc1ccc2nc(-c3ccccc3)c(CNc3ccc(F)cc3)n2c1 [compound 1027] |  |  |  |  | 21.2 | 21.2 | > 32 µg/mL and 32 µg/mL | > 32 | 
Cc1ccc2nc(-c3ccccn3)c(NCc3ccccc3)n2c1 [OSA_000842] |  |  |  |  |  |  |  |  | MIC ([1]; read-out: VRE MIC (UCL)): 32 µg/mL (≈ 102 µM); MIC ([2]; UCL, read-out: MRSA MIC (UCL)): 8 µg/mL (≈ 25.4 µM); MIC ([3]; read-out: MSSA MIC (UCL)): 4 µg/mL (≈ 12.7 µM)
CCCCN(Cc1c(-c2ccccc2)nc2ccc(C)cn12)c1cccc(C(F)(F)F)c1 [compound 1029] |  |  |  |  | 3.5 | 0.5 | 8 µg/mL | 8 | 
Cc1ccc2nc(-c3ccccc3)cn2c1 [OSA_001026] | 64 | 64 | > 32 | > 32 |  |  |  |  | 
CCCCN(Cc1c(-c2ccccn2)nc2cc(C)ccn12)c1ccc(F)cc1 [OSA_001032] | 32 | 16 | 32 (≈ 82.4 µM) | 32 (≈ 82.4 µM) |  |  |  |  | 
Cc1ccc2nc(-c3ccccn3)c(NCc3ccccc3)n2c1 [compound 842] |  |  |  |  |  |  | 8 µg/mL | 4 | VRE MIC [1]: 32 µg/mL
COc1cc(-c2c(-c3ccccn3)nc3n2CCC3)ccc1C#N [compound 1076] |  |  |  |  | 20.2 | 8.8 | > 32 µg/mL and 32 µg/mL | > 32 | 
Cc1ccn2c(CNc3ccc(F)cc3)c(-c3ccccn3)nc2c1 [OSA_001031] | 64 | 64 | > 32 | > 32 |  |  |  |  | 
Cc1ccc2nc(-c3ccccc3)cn2c1 [compound 1026] |  |  |  |  | 13.3 | 13.3 | > 32 µg/mL and 32 µg/mL | > 32 | 
Nc1ccc(-c2c(-c3ccccn3)nc3n2CCC3)cc1 [OSA_001074] | 8 | 5.73 | > 32 | > 32 |  |  |  |  | 
c1ncc(-c2nc3n(c2-c2ccc4occc4c2)CCC3)cn1 [compound 874] |  |  |  |  |  |  |  |  | MIC ([1]; read-out: VRE MIC): > 32 µg/mL; activity against MRSA, in words [2]: inactive; MIC ([2]; read-out: MRSA MIC): > 32 µg/mL
Cc1ccn2c(CN(CC(C)C)c3cccc(C(F)(F)F)c3)c(-c3ccccn3)nc2c1 [compound 1033] |  |  |  |  | 14.0 | 4.3 | > 32 µg/mL and 32 µg/mL | > 32 | 
Cc1ccn2c(Nc3ccc(F)cc3)c(-c3ccc(N(C)C)cc3)nc2c1 [compound 846] |  |  |  |  |  |  | > 32 µg/mL |  | VRE MIC [1]: > 32 µg/mL
COc1ccn2c(NCc3cn(C)cn3)c(-c3ccccn3)nc2c1.O=CO [compound 853] |  |  |  |  |  |  | > 32 µg/mL |  | VRE MIC [1]: > 32 µg/mL
Nc1ccc(-c2c(-c3ccccn3)nc3n2CCC3)cc1 [compound 1074] |  |  |  |  | 2.2 | 1.6 | > 32 µg/mL and 32 µg/mL | > 32 | 
Cc1ccc2nc(-c3ccccn3)c(Nc3ccc4c(c3)OCCO4)n2c1 [compound 841] |  |  |  |  |  |  | 8 µg/mL |  | VRE MIC [1]: 16 µg/mL
COc1ccn2c(Nc3cccc(F)c3)c(-c3cn(C)cn3)nc2c1 [compound 848] |  |  |  |  |  |  | > 32 µg/mL |  | VRE MIC [1]: > 32 µg/mL
